Assay results: publication PMC9851200, “Multiparameter phenotypic screening for endogenous TFEB and TFE3 translocation identifies novel chemical series modulating lysosome function” (Autophagy, 2022)
“Also recorded” adds a separate entry of the source. Where two headings read alike, the source gives them in different places.

What was measured:
SH-SY5Y cells [1] = test system: SH-SY5Y cells
Text: The PKIS2 Library was supplied by The Structural Genomics Consortium at the University of North Carolina at Chapel Hill.

endogenous TFEB = experiment: TFEB nuclear translocation, immunocytochemistry high-content imaging; assay type: cell-based; details: for TFEB %: PKIS2 primary screening
SH-SY5Y cells [2] = experiment: Nuclear count from microscopy images (cellular growth and toxicity); details: PKIS2 primary screening
endogenous TFE3 = experiment: TFE3 nuclear translocation, immunocytochemistry high-content imaging; assay type: cell-based; details: for TFE3 %: PKIS2 primary screening; for Best-Fit Values Span: TFE3 assay concentration response; for Best-Fit Values Span / EC50: 24 h; for EC50: TFE3 assay, read-out: Best-Fit Values EC50 (converted); for Summary: activity in TFE3 assays compared with original NK-140, OT activity
SH-SY5Y cells [3] = experiment: AK (adenylate kinase) release ToxiLight cytotoxicity assay; details: for AK: PKIS2 primary screening; for Cellular toxicity (AK release and nuclear count, in words): SH-SY5Y, 24 h treatment
Experimental: Total cell lysis with 5 µL 5% Triton-X 100 (Sigma-Aldrich, T8787) is used as a positive control for the assay and toxicity is expressed as a percentage of luminescence under DMSO conditions.

[4] = PKIS2 primary screening, DQ Red BSA intensity
[5] = PKIS2 primary screening, DQ Red BSA spot count
[6] = SH-SY5Y, concentration-dependent

SMILES	DQ Intensity (SH-SY5Y cells [1]; [4])	DQ Spot (SH-SY5Y cells [1]; [5])	TFEB % (endogenous TFEB) [%]	Nuclear Count (SH-SY5Y cells [2])	TFE3 % (endogenous TFE3) [%]	AK (SH-SY5Y cells [3])	further results
COc1cc(Nc2nccc(N3CCC(NC(=O)C(C)c4ccc(Cl)cc4)C3)n2)cc(OC)c1OC (stereo not drawn) [GSK1379757]	100.22	95.49	5.14	80.40	15.24	97.54	
Cl.c1ccc(Cn2cnc3cc(Nc4ncnc5ccccc45)ccc32)cc1 [UNC10225378A]	110.75	119.25	2.97	84.68	16.85	86.98	
COc1cccc(CNC(=O)NC2CCN(c3ccnc(Nc4cc(OC)c(OC)c(OC)c4)n3)C2)c1 (stereo not drawn) [GSK1379765]	73.44	97.23	3.20	98.25	15.97	74.87	
COc1nccc(-c2c(-c3ccc(F)cc3)ncn2CCCN2CCOCC2)n1 [UNC10225213A]			5.79	107.77	16.14	78.43	DQ Intensity (SH-SY5Y cells [1]; PKIS2 primary screening): 119.56; DQ Spot (SH-SY5Y cells [1]; PKIS2 primary screening): 105.70
Cc1cccc(-c2nc(Nc3ccc4ncn(C)c4c3)c3ccccc3n2)n1 [NK173]							Best-Fit Values Span (endogenous TFE3; SH-SY5Y): 80.89; EC50 (endogenous TFE3; SH-SY5Y, second EC50 of biphasic/bell-shaped fit or OT (off-target) activity, unit inferred): 1.92 µM; Summary (endogenous TFE3): Only OT activity
O=C1NCCCc2c1oc1ccc(O)cc21 [CID755673, reference compound]							DQ Red BSA signal (in words) (SH-SY5Y cells [1]): no TFEB and TFE3 translocation, alteration in DQ Red BSA signal or toxicity; also recorded: no effect across these assays; TFEB translocation (in words) (endogenous TFEB): no TFEB and TFE3 translocation; also recorded: no effect across these assays; TFE3 translocation (in words) (endogenous TFE3): no TFEB and TFE3 translocation; also recorded: no effect across these assays; Cellular toxicity (AK release and nuclear count, in words) (SH-SY5Y cells [3]): no TFEB and TFE3 translocation, alteration in DQ Red BSA signal or toxicity; also recorded: no effect across these assays
O=C(Nc1ccc(CN2CCOCC2)cc1)c1ccc(-c2cccc(Cl)c2)o1 [CID2011756, reference compound]							DQ Red BSA signal (in words) (SH-SY5Y cells [1]): some reduction of DQ Red BSA signal; Lysosomal toxicity (in words) (SH-SY5Y cells [1]; human): marked lysosomal and cellular toxicity at 20 µM; TFEB translocation (in words) (endogenous TFEB): some TFEB and TFE3 translocation only at 20 µM; also recorded: induced TFEB and TFE3 translocation only alongside marked lysosomal and cellular toxicity at 20 µM; TFE3 translocation (in words) (endogenous TFE3): some TFEB and TFE3 translocation only at 20 µM; also recorded: induced TFEB and TFE3 translocation only alongside marked lysosomal and cellular toxicity at 20 µM; Cellular toxicity (AK release and nuclear count, in words) (SH-SY5Y cells [3]): marked lysosomal and cellular toxicity at 20 µM
C[C@@H](Oc1cc(-n2cnc3cc(-c4cnn(C)c4)ccc32)sc1C(N)=O)c1ccccc1Cl [UNC10225416A]			18.53		8.07	104.83	DQ Intensity (SH-SY5Y cells [1]): 219.18; DQ Spot (SH-SY5Y cells [1]): 124.35
Cc1cnc(N)c(/C=C/c2cncc(C(=O)NCCc3ccc(Cl)cc3Cl)c2)c1.Cl [UNC10225238A]	95.52	99.30					
CC(=O)Nc1ccc(C(=O)Nc2ccccc2N)cc1 [CI-994, Tacedinaline, reference compound]							DQ Red BSA signal (in words) (SH-SY5Y cells [1]; SH-SY5Y, 24 h treatment): robustly increase DQ Red BSA puncta signal; DQ Red BSA spot count / active lysosome count (in words) (SH-SY5Y cells [1]; SH-SY5Y, 24 h treatment): increases
Cc1cccc(-c2nc(Nc3ccc4[nH]ccc4c3)c3ccccc3n2)n1 [NK218]							Best-Fit Values Span (endogenous TFE3; SH-SY5Y): 20.78; EC50 (endogenous TFE3; SH-SY5Y, µM): 0.42 µM; Summary (endogenous TFE3): More Potent
CC(C)c1nc(-c2cccc(NS(=O)(=O)c3ccccc3)c2)c(-c2ccnc(Nc3ccc4c(c3)CN(C)CC4)n2)s1 [UNC10225068A]				76.87	63.29	114.97	DQ Intensity (SH-SY5Y cells [1]; PKIS2 primary screening): 3.98; DQ Spot (SH-SY5Y cells [1]; PKIS2 primary screening): 39.66
CCN(CC)CCCC(C)Nc1ccnc2cc(Cl)ccc12 (stereo not drawn) [chloroquine, reference compound]							DQ Red BSA signal (in words) (SH-SY5Y cells [1]; SH-SY5Y, 24 h treatment): greatly reduced; DQ Red BSA spot count / active lysosome count (in words) (SH-SY5Y cells [1]; SH-SY5Y, 24 h treatment): reduces; TFEB translocation from the cytoplasm to the nucleus (% nTFEB) (endogenous TFEB; [6]): > 80%; TFE3 translocation from the cytoplasm to the nucleus (% nTFE3) (endogenous TFE3; [6]): > 80%
